The values below come from ChEMBL document CHEMBL1146459, “Production of biologically active taxoids by a callus culture of Taxus cuspidata” (2004).

Structures are written as SMILES.

Test [1] relates to A549. Description: Growth inhibition of human A549 cells after 48 hrs by SRB assay. The format is functional. Particulars: A549, 48 h.
Test [2] has as its system NCI-H522. Description: Growth inhibition of human NCI-H522 cells after 48 hrs by SRB assay. It counts as functional. The conditions noted are these: NCI-H522, 48 h. (In general: The SRB assay estimates cell density from bound dye.)
[3] abbreviates: read-out: LC50 (the source's name).
Setting [4] is: read-out: pLC50 (the source's name) (converted).

Take `C=C1[C@@H](OC(C)=O)CC[C@@]2(C)C[C@H](OC(C)=O)C3=C(C)C[C@H](OC(=O)C(C)CC)[C@@H]([C@@H](OC(C)=O)[C@H]12)C3(C)C` (some centres undefined): the GI50 in test [1] (read-out: GI50) was 30 µM; in test [1] (read-out: pGI50 (converted)), 30.2 µM; in test [2] (read-out: GI50), 15 µM; in test [2] (read-out: pGI50 (converted)), 24 µM. Also, the CC50 was above 100 µM in test [1] (setting [3]), 100 µM in test [1] (setting [4]), above 100 µM in test [2] (setting [3]) and 100 µM in test [2] (setting [4]). The TGI in test [1] (read-out: TGI) was above 100 µM; in test [1] (read-out: pTGI (converted)), 100 µM; in test [2] (read-out: TGI), 49 µM; in test [2] (read-out: pTGI (converted)) it was 49 µM.
As to `C=C1[C@@H](OC(C)=O)CC[C@]2(C)[C@@H]1C[C@@H]1C[C@H](OC(C)=O)C(C)=C([C@@H](O)[C@@H]2OC(=O)/C=C/c2ccccc2)C1(C)C`, the GI50 in test [1] (read-out: GI50) is 9.6 µM; in test [1] (read-out: pGI50 (converted)), 9.55 µM; in test [2] (read-out: GI50), 3.1 µM; in test [2] (read-out: pGI50 (converted)) it was 3.09 µM. Besides, the CC50 in test [1] (setting [3]), in test [1] (setting [4]), in test [2] (setting [3]) and in test [2] (setting [4]) was 100 µM each time. For the same molecule, the TGI in test [1] (read-out: TGI) is 100 µM; in test [1] (read-out: pTGI (converted)), 100 µM; in test [2] (read-out: TGI) it was 81 µM; in test [2] (read-out: pTGI (converted)) it was 100 µM.
